Converted amounts (≈) assume the structure as drawn. Where two headings read alike, the source gives them in different places.
How the values were obtained:
Assay type in all cases: cell-based, Propionibacterium acnes
HL043PA1 strain (RT5) = experiment: MIC by broth microdilution method, HL043PA1 strain; conditions: for MIC: Cutibacterium acnes, read-out: MIC against acne bacterium strain HL043PA1 strain (RT5)
Description: An MIC is measured herein according to the broth microdilution method which is the standard method of Japanese Society of Chemotherapy.
(§1) The antibacterial activity of a test substance was determined based on the minimum inhibitory concentration (MIC). An MIC was measured according to the broth microdilution method which is the standard method of Japanese Society of Chemotherapy.
One-loopful of each acne bacterium strain listed in Table 1 was scraped off and inoculated into 5 mL of a GAM broth slant agar medium (pH 7.0, Nissui Pharmaceutical Co., Ltd.).
The inoculated acne bacterium strain was precultured at 37° C. in a nitrogen atmosphere (anaerobic condition) for 48 hours. […]
Each fatty acid (Tokyo Chemical Industry Co., Ltd.) listed in Table 2 was dissolved in dimethylsulfoxide (DMSO) as a solvent such that the concentration became 10,000 μg/mL, and used as a test substance.
Each of strain suspensions (5.0×10^4 cfu/mL) was aliquoted in a 96-well round bottom microplate, each of the test substance (fatty acid concentration 10,000 μg/mL) was added at a 1/10 volume to the aliquot and mixed to prepare measurement samples (fatty acid concentration: 1,000 μg/mL). Measurement samples in 2-fold dilution series were prepared using the strain suspension (fatty acid concentration from 0.48 to 1,000 μg/mL).
(§2) The measurement samples were incubated under an anaerobic condition at 37° C. for 2 days. The presence or absence of a precipitation of test microbial cells after the incubation was examined and the minimum concentration at which the precipitation of microbial cells […] was regarded as the MIC (μg/mL) of the test substance against the acne bacterium strain.

[1] = tested on: HL053PA1 strain (RT4) and HL043PA1 strain (RT5) versus HL110PA3 strain (RT6); experiment: Strain-selective antibacterial activity (average of MICRT6/MICRT4 and MICRT6/MICRT5); conditions: for Strain-selective antibacterial activity over the tested pH range, in words: tested pH range pH 5 to 7
From the text: Herein, “acne strain-selective antibacterial activity” or “strain-selective antibacterial activity” means an index indicating better inhibition of growth of a dominant strain in acne patients compared to that of a dominant strain in healthy subjects. It is expressed by the average value of the values (MICRT6/MICRT4, and MICRT6/MICRTS) obtained by dividing the minimum inhibitory concentration (MIC) of an object substance with respect to the dominant strain in healthy subjects (RT6 strain) (MICRT6) respectively by the MIC of the object substance with respect to the dominant strain in acne patients (RT4 strain) (MICRT4), and by the MIC of the object substance with respect to the dominant strain in acne patients (RT5 strain) (MICRT5).
The strain-selective antibacterial activity of each test substance (Table 2, right-most column) was evaluated based on the following rating criteria (Table 3). When the strain-selective antibacterial activity is indicated by a numerical range, the rating was based on the minimum value thereof.

[2] = tested on: dominant strain in acne patients (RT4 strain and/or RT5 strain); experiment: MIC against dominant strain in acne patients; conditions: Cutibacterium acnes, in the pH range tested in the Examples
Description: as §1
Each of strain suspensions (5.0×10^4 cfu/mL) was aliquoted in a 96-well round bottom microplate, each of the test substance (fatty acid concentration 10,000 μg/mL) was added at a 1/10 volume to the aliquot and mixed to prepare measurement samples (fatty acid concentration: 1,000 μg/mL). Measurement samples in 2-fold dilution series were prepared using the strain suspension (fatty acid concentration from 0.48 to 1,000 μg/mL). Using a sample containing only the solvent (DMSO) as a control, it was confirmed that the influence of the solvent on the growth of each strain could be neglected.
as §2

[3] = tested on: HL053PA1 strain (RT4 strain) and HL110PA3 strain (RT6 strain); experiment: Coculture test, coculturing strain suspension-1; design: dose or concentration left out as unconfirmed; conditions: pH 6.0, 2 days (FIG. 2a)
From the text: Acne bacteria strains (HL053PA1 strain (RT4 strain), HL043PA1 strain (RT5 strain), and HL110PA3 strain (RT6 strain)) were respectively precultured in the same manner as in Example 1.
The HL053PA1 strain (RT4 strain) and the HL110PA3 strain (RT6 strain) were suspended in a modified GAM broth liquid medium (pH 6.0) respectively at a concentration of 5.0×10^4 cfu/mL. Similarly, the HL043PA1 strain (RT5 strain) and the HL110PA3 strain (RT6 strain) were suspended respectively at a concentration of 5.0×10^4 cfu/mL. The suspensions were respectively designated as coculturing strain suspensions-1, and -2.
[…] Using a sample to which only 0.5% of DMSO was added as a control, it was confirmed that the influence of the solvent on the growth of each bacterium strain could be neglected.
The test sample was statically cultured under anaerobic conditions at 37° C. for 2 days. After the culture, part of the culture solution was cultured under anaerobic conditions on a GAM broth agar plate (pH 7) for 3 days. The bacterium strains were identified based on the morphology (particularly size) of the emerged colonies, and the viable cell count (cfu/mL) of each bacterium strain was measured. From the measurement results, the proportion of each bacterium strain in the entire microbial cells was calculated (FIG. 2).

[4] = tested on: HL110PA3 strain (RT6 strain); experiment: Time course of viable cell count, HL110PA3 strain; conditions: 15 μg/mL, pH 6.0, anaerobic 37° C., 0 to 44 hours (FIG. 1c)
Description: To each strain suspension (pH 6.0, 5.0×10^5 cfu/mL) of the acne bacterium strain (HL053PA1 strain (RT4 strain), HL043PA1 strain (RT5 strain), and HL110PA3 strain (RT6 strain)) prepared in the same manner as in Example 1, pentadecanoic acid (C15:0) was added to mix together (final concentration of a fatty acid of 15 μg/mL, and final concentration of solvent DMSO of 0.5%), and each the mixture was statically cultured at 37° C. in a nitrogen atmosphere (anaerobic condition). Using a sample to which only DMSO was added at 0.5% (final concentration) as a control, it was confirmed that the influence of the solvent on the growth of each strain could be neglected.
The viable cell count in the culture solution was measured at 0, 2, 8, 18, 30 and 44 hours after the start of culturing. A viable cell count (cfu/mL) was calculated from the number of emerged colonies after culturing part of the culture solution on a GAM broth agar plate under anaerobic conditions for 3 days (FIG. 1).

[5] = 48 h, pH 6.0 modified GAM broth, anaerobic, 37° C., 2 days (Example 1)
[6] = 72 h, pH 5.0, estimated from the growth on day 3
[7] = pH 5.0, estimated from the growth on day 3

| SMILES | MIC (HL043PA1 strain (RT5); [5]) [µg/mL] | MIC (HL043PA1 strain (RT5); [6]) [µg/mL] | MIC (HL043PA1 strain (RT5); pH 5.5) [µg/mL] | MIC (HL043PA1 strain (RT5); pH 6.5) [µg/mL] | MIC (HL043PA1 strain (RT5); pH 7.0) [µg/mL] | MIC against acne bacterium strain HL043PA1 strain (RT5) (HL043PA1 strain (RT5); [7]) [µg/mL] | Strain-selective antibacterial activity ([1]; pH 5.5) | Strain-selective antibacterial activity at each pH ([1]; pH 5.5 (summary Table 10)) | Strain-selective antibacterial activity ([1]; pH 6.0 (Example 1)) | Strain-selective antibacterial activity at each pH ([1]; pH 6 (summary Table 10)) | Strain-selective antibacterial activity ([1]; pH 6.5) | Strain-selective antibacterial activity at each pH ([1]; pH 6.5 (summary Table 10)) | Strain-selective antibacterial activity ([1]; pH 7.0) | Strain-selective antibacterial activity at each pH ([1]; pH 7 (summary Table 10)) | Strain-selective antibacterial activity over the tested pH range, in words [1] | MIC [2] [µg/mL] | Strain-selective antibacterial activity ([1]; pH 5.0) | Strain-selective antibacterial activity at each pH ([1]; pH 5 (summary Table 10)) | Growth of the dominant strain in acne patients in coculture with RT6 strain [3] | Growth of the HL110PA3 strain (RT6 strain), viable cell count time course [4] |
| --- | --- | --- | --- | --- | --- | --- | --- | --- | --- | --- | --- | --- | --- | --- | --- | --- | --- | --- | --- | --- |
| CCCCCCCCCCCCCCCCC(=O)O [Heptadecanoic acid (C17:0), Heptadecanoic acid] | 7.81 (≈ 28.9 µM) | > 1000 | 15.6 (≈ 57.7 µM) | 3.9 (≈ 14.4 µM) | 7.8 (≈ 28.8 µM) | >1000 | >64 | >64 | >130 | >130 | >140 | >140 | 72 | 72 | maintained a high strain-selective antibacterial activity between pH 5.5 and pH 7 | ≤ 62.5 | – | – | – | – |
| CCCCCCCCCCCCCC(=O)O [Myristic acid (C14:0), Myristic acid] | 15.6 (≈ 68.3 µM) | 31.3 (≈ 137 µM) | 15.6 (≈ 68.3 µM) | 31.3 (≈ 137 µM) | 250 (≈ 1090 µM) | – | >64 | >64 | 16 | 16 | >5.0 | >5.0 | 2.0 | 2.0 | – | – | >48 | >48 | – | – |
| CCCCCCCCCCCCCCCC(=O)O [Palmitic acid (C16:0), Palmitic acid] | 7.81 (≈ 30.5 µM) | > 1000 | 62.5 (≈ 244 µM) | 3.9 (≈ 15.2 µM) | 15.6 (≈ 60.8 µM) | >1000 | >16 | >16 | >130 | >130 | >130 | >130 | 40 | 40 | – | – | – | – | – | – |
| CCCCCCCCCCCCCCC(=O)O [Pentadecanoic acid (C15:0), Pentadecanoic acid] | 1.95 (≈ 8.04 µM) | 15.6 (≈ 64.4 µM) | 3.9 (≈ 16.1 µM) | 1.95 (≈ 8.04 µM) | 3.9 (≈ 16.1 µM) | – | >260 | >260 | 130 | 130 | >96 | >96 | 260 | 260 | maintained a high strain-selective antibacterial activity over the entire pH range tested (pH 5 to 7) | – | >96 | >96 | suppressed selectively | not suppressed |
